Experimental data as given in ChEMBL document CHEMBL5634136 (Eur J Med Chem, 2023).
pIC50: −log10 of the molar value.

Experiment: Antiproliferative activity against mouse KC-0122 cells assessed as inhibition of cell growth incubated for 72 hrs by MTT assay
Type: functional, cell-based
Conditions: KC-0122, 72 h

| SMILES | pIC50 |
| --- | --- |
| COc1ccc(NC(=O)CCN)cc1Nc1nccc(-c2cn(C)c3ccccc23)n1 | 5.91 |
| COCC(=O)Nc1cc(Nc2nccc(-c3cn(C)c4ccccc34)n2)c(OC)cc1N1CCC(N(C)C)CC1 | 6.35 |
| COc1cc(N2CCC(N3CCN(C)CC3)CC2)ccc1Nc1ncc(Cl)c(Nc2ccccc2P(C)(C)=O)n1 [BRIGATINIB] | 6.35 |
| CN(C)CCOc1ccc(Nc2nccc(-c3cn(C)c4ccccc34)n2)cc1 | 5.76 |
| COc1cc(N2CCC(N(C)C)CC2)c(NC(=O)CO)cc1Nc1nccc(-c2cn(C)c3ccccc23)n1 | 6.32 |
| CN(C)CCN(C)c1ccc(Nc2nccc(-c3cn(C)c4ccccc34)n2)cc1 | 5.81 |
| CN1CCN(c2ccc(Nc3nccc(-c4cn(C)c5ccccc45)n3)cc2)CC1 | 6.27 |
| CC(=O)N1CCN(c2ccc(Nc3nccc(-c4cn(C)c5ccccc45)n3)cc2)CC1 | 5.82 |
| COc1cc(N(C)CCN(C)C)c(NC(=O)CN)cc1Nc1nccc(-c2cn(C)c3ccccc23)n1 | 5.57 |
| COc1ccc(NC(=O)CN)cc1Nc1nccc(-c2cn(C)c3ccccc23)n1 | 5.28 |
| Cn1cc(-c2ccnc(Nc3cccc(NS(=O)(=O)C4CC4)c3)n2)c2ccccc21 | 5.92 |
| COc1cc(N(C)CCN(C)C)ccc1Nc1nccc(-c2cn(C)c3ccccc23)n1 | 5.79 |
| COc1cc2c(cc1Nc1nccc(-c3cn(C)c4ccccc34)n1)NC(=O)CCCCCN2CCN(C)C | 5.55 |
| COc1cc(N2CCC(N3CCN(C)CC3)CC2)ccc1Nc1nccc(-c2cn(C)c3ccccc23)n1 | 5.86 |
| CN(C)C1CCN(c2ccc(Nc3nccc(-n4cc(NC(=O)c5ccccc5)cn4)n3)cc2NS(C)(=O)=O)CC1 | 6.31 |
| COc1cc(N(C)CCN(C)C)c(NC(=O)CO)cc1Nc1nccc(-c2cn(C)c3ccccc23)n1 | 5.51 |
| Cn1cc(-c2ccnc(Nc3ccc(N4CCCCC4)cc3)n2)c2ccccc21 | < 5.00 |

Experiment: Induction of apoptosis in mouse KC-0116 cells assessed as viable cells at 1 uM incubated for 48 hrs by annexin V-FITC/ PI staining based flow cytometry (reference value: 93.27 %)
Type: functional
Conditions: not given

| SMILES | Activity |
| --- | --- |
| COc1cc(N2CCC(N3CCN(C)CC3)CC2)ccc1Nc1ncc(Cl)c(Nc2ccccc2P(C)(C)=O)n1 [BRIGATINIB] | 65.74% |

Experiment: Induction of apoptosis in mouse KC-0116 cells assessed as early apoptotic cells at 1 uM incubated for 48 hrs by annexin V-FITC/ PI staining based flow cytometry (reference value: 8.09 %)
Type: functional
Conditions: not given

| SMILES | Activity |
| --- | --- |
| COc1cc(N2CCC(N3CCN(C)CC3)CC2)ccc1Nc1ncc(Cl)c(Nc2ccccc2P(C)(C)=O)n1 [BRIGATINIB] | 26.61% |

Experiment: Antiproliferative activity against mouse KC-0116 cells assessed as inhibition of cell growth incubated for 72 hrs by MTT assay
Type: functional, cell-based
Conditions: KC-0116, 72 h

| SMILES | pIC50 |
| --- | --- |
| COc1ccc(NC(=O)CCN)cc1Nc1nccc(-c2cn(C)c3ccccc23)n1 | 5.84 |
| COCC(=O)Nc1cc(Nc2nccc(-c3cn(C)c4ccccc34)n2)c(OC)cc1N1CCC(N(C)C)CC1 | 6.34 |
| COc1cc(N2CCC(N3CCN(C)CC3)CC2)ccc1Nc1ncc(Cl)c(Nc2ccccc2P(C)(C)=O)n1 [BRIGATINIB] | 6.46 |
| CN(C)CCOc1ccc(Nc2nccc(-c3cn(C)c4ccccc34)n2)cc1 | 5.89 |
| COc1cc(N2CCC(N(C)C)CC2)c(NC(=O)CO)cc1Nc1nccc(-c2cn(C)c3ccccc23)n1 | 6.34 |
| CN(C)CCN(C)c1ccc(Nc2nccc(-c3cn(C)c4ccccc34)n2)cc1 | 5.97 |
| CN1CCN(c2ccc(Nc3nccc(-c4cn(C)c5ccccc45)n3)cc2)CC1 | 6.42 |
| CC(=O)N1CCN(c2ccc(Nc3nccc(-c4cn(C)c5ccccc45)n3)cc2)CC1 | 5.98 |
| COc1cc(N(C)CCN(C)C)c(NC(=O)CN)cc1Nc1nccc(-c2cn(C)c3ccccc23)n1 | 5.88 |
| COc1ccc(NC(=O)CN)cc1Nc1nccc(-c2cn(C)c3ccccc23)n1 | 5.42 |
| Cn1cc(-c2ccnc(Nc3cccc(NS(=O)(=O)C4CC4)c3)n2)c2ccccc21 | 6.24 |
| COc1cc(N(C)CCN(C)C)ccc1Nc1nccc(-c2cn(C)c3ccccc23)n1 | 5.75 |
| COc1cc2c(cc1Nc1nccc(-c3cn(C)c4ccccc34)n1)NC(=O)CCCCCN2CCN(C)C | 5.63 |
| COc1cc(N2CCC(N3CCN(C)CC3)CC2)ccc1Nc1nccc(-c2cn(C)c3ccccc23)n1 | 5.93 |
| CN(C)C1CCN(c2ccc(Nc3nccc(-n4cc(NC(=O)c5ccccc5)cn4)n3)cc2NS(C)(=O)=O)CC1 | 6.28 |
| COc1cc(N(C)CCN(C)C)c(NC(=O)CO)cc1Nc1nccc(-c2cn(C)c3ccccc23)n1 | 5.86 |
| Cn1cc(-c2ccnc(Nc3ccc(N4CCCCC4)cc3)n2)c2ccccc21 | < 5.00 |

Experiment: Induction of apoptosis in mouse KC-0116 cells assessed as late apoptotic cells at 1 uM incubated for 48 hrs by annexin V-FITC/ PI staining based flow cytometry (reference value: 1 %)
Type: functional
Conditions: not given

| SMILES | Activity |
| --- | --- |
| COc1cc(N2CCC(N3CCN(C)CC3)CC2)ccc1Nc1ncc(Cl)c(Nc2ccccc2P(C)(C)=O)n1 [BRIGATINIB] | 7.32% |

Experiment: Induction of apoptosis in mouse KC-0116 cells assessed as necrotic cells at 1 uM incubated for 48 hrs by annexin V-FITC/ PI staining based flow cytometry (reference value: 0.04 %)
Type: functional
Conditions: not given

| SMILES | Activity |
| --- | --- |
| COc1cc(N2CCC(N3CCN(C)CC3)CC2)ccc1Nc1ncc(Cl)c(Nc2ccccc2P(C)(C)=O)n1 [BRIGATINIB] | 0.32% |

Experiment: Induction of apoptosis in mouse KC-0116 cells assessed as late apoptotic cells at 0.3 uM incubated for 48 hrs by annexin V-FITC/ PI staining based flow cytometry (reference value: 1 %)
Type: functional
Conditions: not given

| SMILES | Activity |
| --- | --- |
| COc1cc(N2CCC(N3CCN(C)CC3)CC2)ccc1Nc1ncc(Cl)c(Nc2ccccc2P(C)(C)=O)n1 [BRIGATINIB] | 1.71% |

Experiment: Induction of apoptosis in mouse KC-0116 cells assessed as viable cells at 0.3 uM incubated for 48 hrs by annexin V-FITC/ PI staining based flow cytometry (reference value: 93.27 %)
Type: functional
Conditions: not given

| SMILES | Activity |
| --- | --- |
| COc1cc(N2CCC(N3CCN(C)CC3)CC2)ccc1Nc1ncc(Cl)c(Nc2ccccc2P(C)(C)=O)n1 [BRIGATINIB] | 92.51% |

Experiment: Induction of apoptosis in mouse KC-0116 cells assessed as necrotic cells at 0.3 uM incubated for 48 hrs by annexin V-FITC/ PI staining based flow cytometry (reference value: 0.04 %)
Type: functional
Conditions: not given

| SMILES | Activity |
| --- | --- |
| COc1cc(N2CCC(N3CCN(C)CC3)CC2)ccc1Nc1ncc(Cl)c(Nc2ccccc2P(C)(C)=O)n1 [BRIGATINIB] | 0.01% |

Experiment: Induction of apoptosis in mouse KC-0116 cells assessed as early apoptotic cells at 0.3 uM incubated for 48 hrs by annexin V-FITC/ PI staining based flow cytometry (reference value: 8.09 %)
Type: functional
Conditions: not given

| SMILES | Activity |
| --- | --- |
| COc1cc(N2CCC(N3CCN(C)CC3)CC2)ccc1Nc1ncc(Cl)c(Nc2ccccc2P(C)(C)=O)n1 [BRIGATINIB] | 6.75% |

Experiment: Toxicity in BALB/c mouse xenografted with mouse KC-0116 cells assessed as change in body weight at 10 mg/kg,po administrated once daily for 10 days
Type: organism-based
Conditions: in vivo, 240 h, time 10 day

| SMILES | Activity |
| --- | --- |
| COc1cc(N2CCC(N3CCN(C)CC3)CC2)ccc1Nc1ncc(Cl)c(Nc2ccccc2P(C)(C)=O)n1 [BRIGATINIB] | Non-Toxic |
